Values quoted from earlier work as cited in US20180311177A1, “Therapeutic Nanoparticles Comprising A Therapeutic Agent and Methods of Making and Using Same” (Pfizer Inc., priority 2015, published 2018).

What was measured:
[1] = not given; remark: listed apart in the source

Compound	log P	pKa [1]
c1ccc(CNCCNCc2ccccc2)cc1 [N,N′-dibenzylethylenediamine]	2.89	–
c1ccc(CCNCc2ccccc2)cc1 [N-(phenylmethyl)benzeneethanamine]	3.54	9.88
CCCCCCCCCCCCN [dodecylamine]	4.25	10.21
